The source made the active and inactive calls. No cut-off for these calls is given here.
Assays:
MDA-MB-468 = experiment: cells; conditions: Homo sapiens, MDA-MB-468, 96 h
Description: Antiproliferative activity against human MDA-MB-468 cells assessed as inhibition of cell growth incubated for 96 hrs cellcounting-lite analysis

[1] = target: T1, Cyclin-dependent kinase 12 (Homo sapiens, UniProt Q9NYV4); experiment: Irreversible inhibition of CDK12 in human MDA-MB-231 cells at 10 uM pretreated with compound for 4 hrs followed by compound washout measured after 6 hrs; format: cell-based
Target sequence in this assay (Q9NYV4 whole entry, looked up): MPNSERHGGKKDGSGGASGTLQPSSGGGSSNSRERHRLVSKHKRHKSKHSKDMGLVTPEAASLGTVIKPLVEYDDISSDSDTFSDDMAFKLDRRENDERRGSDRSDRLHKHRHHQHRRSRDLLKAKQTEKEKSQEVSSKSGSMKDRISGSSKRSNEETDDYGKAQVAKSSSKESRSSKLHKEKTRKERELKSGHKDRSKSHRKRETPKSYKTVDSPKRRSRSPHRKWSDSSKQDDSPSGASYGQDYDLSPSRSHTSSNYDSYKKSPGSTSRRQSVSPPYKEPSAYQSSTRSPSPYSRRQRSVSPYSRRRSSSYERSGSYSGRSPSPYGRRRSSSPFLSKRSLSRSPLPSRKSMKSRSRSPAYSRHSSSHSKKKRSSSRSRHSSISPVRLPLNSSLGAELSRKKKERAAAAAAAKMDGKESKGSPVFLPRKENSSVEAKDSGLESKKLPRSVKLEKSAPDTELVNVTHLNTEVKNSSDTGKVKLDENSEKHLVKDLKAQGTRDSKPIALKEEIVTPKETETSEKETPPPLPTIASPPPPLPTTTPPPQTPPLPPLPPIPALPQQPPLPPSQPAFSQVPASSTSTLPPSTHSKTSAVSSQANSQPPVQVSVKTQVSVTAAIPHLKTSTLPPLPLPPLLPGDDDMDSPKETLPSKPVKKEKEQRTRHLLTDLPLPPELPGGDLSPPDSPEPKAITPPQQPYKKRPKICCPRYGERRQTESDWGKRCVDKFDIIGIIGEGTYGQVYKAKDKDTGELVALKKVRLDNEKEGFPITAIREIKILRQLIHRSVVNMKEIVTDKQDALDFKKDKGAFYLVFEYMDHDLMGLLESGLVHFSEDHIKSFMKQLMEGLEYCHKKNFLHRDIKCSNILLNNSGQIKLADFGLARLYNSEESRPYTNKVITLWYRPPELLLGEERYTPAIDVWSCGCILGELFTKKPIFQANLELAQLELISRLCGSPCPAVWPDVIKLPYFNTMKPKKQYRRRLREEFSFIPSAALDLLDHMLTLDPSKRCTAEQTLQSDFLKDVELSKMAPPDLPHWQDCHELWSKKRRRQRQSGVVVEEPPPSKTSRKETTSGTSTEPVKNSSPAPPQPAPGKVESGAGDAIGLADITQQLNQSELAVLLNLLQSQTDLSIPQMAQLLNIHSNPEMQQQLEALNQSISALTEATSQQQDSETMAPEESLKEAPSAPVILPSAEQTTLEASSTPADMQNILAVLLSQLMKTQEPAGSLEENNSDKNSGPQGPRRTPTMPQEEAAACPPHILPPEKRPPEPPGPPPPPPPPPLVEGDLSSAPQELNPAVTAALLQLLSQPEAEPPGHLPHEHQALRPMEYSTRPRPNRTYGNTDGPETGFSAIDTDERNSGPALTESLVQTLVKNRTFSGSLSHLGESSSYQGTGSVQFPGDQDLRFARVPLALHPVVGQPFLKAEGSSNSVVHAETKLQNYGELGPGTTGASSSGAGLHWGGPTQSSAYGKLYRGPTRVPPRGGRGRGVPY

[2] = target: T1, Cyclin-dependent kinase 12; experiment: Inhibition of CDK12 in human MDA-MB-231 cells assessed as reduction in RNA Pol II CTD level at Ser2 residue at 10 uM incubated for 4 hrs by Western blot analysis; format: cell-based
Target sequence in this assay (Q9NYV4 whole entry, looked up): as above

MDA-MB-231 [3] = experiment: cells; conditions: Homo sapiens, MDA-MB-231, 96 h
Description: Antiproliferative activity against human MDA-MB-231 cells assessed as inhibition of cell growth incubated for 96 hrs cellcounting-lite analysis

MDA-MB-231 [4] = experiment: Effect on BRCA1 mRNA level in human MDA-MB-231 cells at 50 nM incubated for 6 hrs by qRT-PCR analysis; format: functional, cell-based
MDA-MB-231 [5] = experiment: Effect on FANCI mRNA level in human MDA-MB-231 cells at 50 nM incubated for 6 hrs by qRT-PCR analysis; format: functional, cell-based
MDA-MB-231 [6] = experiment: Effect on FANCD2 mRNA level in human MDA-MB-231 cells at 50 nM incubated for 6 hrs by qRT-PCR analysis; format: functional, cell-based
MDA-MB-231 [7] = experiment: Effect on RAD51 mRNA level in human MDA-MB-231 cells at 50 nM incubated for 6 hrs by qRT-PCR analysis; format: functional, cell-based
MDA-MB-231 [8] = experiment: Effect on SMARCC1 mRNA level in human MDA-MB-231 cells at 50 nM incubated for 6 hrs by qRT-PCR analysis; format: functional, cell-based
MDA-MB-231 [9] = experiment: Effect on ATM mRNA level in human MDA-MB-231 cells at 50 nM incubated for 6 hrs by qRT-PCR analysis; format: functional, cell-based
MDA-MB-231 [10] = experiment: Effect on ATR mRNA level in human MDA-MB-231 cells at 50 nM incubated for 6 hrs by qRT-PCR analysis; format: functional, cell-based
MDA-MB-231 [11] = experiment: Effect on ATM level in human MDA-MB-231 cells at 50 nM incubated for 24 hrs by Western blot analysis; format: functional, cell-based
MDA-MB-231 [12] = experiment: Effect on cleaved PARP level in human MDA-MB-231 cells at 50 nM incubated for 24 hrs by Western blot analysis; format: functional, cell-based
MDA-MB-231 [13] = experiment: Effect on RAD51 level in human MDA-MB-231 cells at 50 nM incubated for 24 hrs by Western blot analysis; format: functional, cell-based
MDA-MB-231 [14] = experiment: Effect on alpha-tubulin level in human MDA-MB-231 cells at 50 nM incubated for 24 hrs by Western blot analysis; format: functional, cell-based
[15] = target: Protein cereblon/Cyclin-K (Homo sapiens, UniProt O75909+Q96SW2); experiment: PROTAC activity at CRBN/Cyclin K in human MDA-MB-231 cells assessed as reduction in cyclin K level incubated for 4 hrs by Western blot analysis; format: cell-based
[16] = target: T1, Cyclin-dependent kinase 12; experiment: Inhibition of CDK12 (unknown origin) using GSRTPMY-NH2 as substrate in presence of ATP by ADP-glo assay
Target sequence in this assay (Q9NYV4 whole entry): as the sequence (Q9NYV4 whole entry, looked up) above

[17] = target: T1, Cyclin-dependent kinase 12; experiment: Inhibition of full length FLAG-tagged CDK12 (unknown origin) at Cys1039 residue expressed in HEK293T cells at 50 uM incubated for 2 hrs by mass spectrometry analysis; format: cell-based
Target sequence in this assay (Q9NYV4 whole entry, looked up): as above

[18] = target: T1, Cyclin-dependent kinase 12; experiment: Inhibition of CDK12 in human MDA-MB-231 cells incubated for 4 hrs by immunoblotting analysis; format: cell-based
Target sequence in this assay (Q9NYV4 whole entry, looked up): as above

[19] = target: T1, Cyclin-dependent kinase 12; experiment: Inhibition of CDK12 in human MDA-MB-231 cells incubated for 4 hrs; format: cell-based
Target sequence in this assay (Q9NYV4 whole entry, looked up): as above

[20] = target: T1, Cyclin-dependent kinase 12; experiment: Binding affinity to CDK12 (714 to 1069 residues) in HEK293T cells assessed as increase in thermal stability at 5 uM measured for 6 hrs by cellular thermal shift assay; format: cell-based
Target sequence in this assay (Q9NYV4 whole entry, looked up): as above

[21] = target: T1, Cyclin-dependent kinase 12; experiment: Inhibition of CDK12 in human MDA-MB-231 cells at 100 nM measured upto 6 hrs by Western blot analysis; format: cell-based
[22] = target: T1, Cyclin-dependent kinase 12; experiment: Irreversible inhibition of CDK12 in human MDA-MB-231 cells at 100 nM pretreated with compound for 4 hrs followed by compound washout measured after 6 hrs; format: cell-based
[23] = target: T1, Cyclin-dependent kinase 12; experiment: Inhibition of CDK12 in human MDA-MB-231 cells pretreated with compound for 4 hrs followed by compound washout measured after 3 days; format: cell-based
Target sequence in this assay (Q9NYV4 whole entry): as the sequence (Q9NYV4 whole entry, looked up) above

[24] = target: T1, Cyclin-dependent kinase 12; experiment: Inhibition of CDK12 in human MDA-MB-231 cells incubated for 10 hrs; format: cell-based
Target sequence in this assay (Q9NYV4 whole entry): as the sequence (Q9NYV4 whole entry, looked up) above

[25] = target: T1, Cyclin-dependent kinase 12; experiment: Inhibition of CDK12 in human MDA-MB-231 cells assessed as reduction in RNA Pol II CTD level at Ser2 residue at 2000 nM incubated for 4 hrs by Western blot analysis; format: cell-based
[26] = target: Cyclin-dependent kinase 13 (Homo sapiens, UniProt Q14004); experiment: Inhibition of CDK13 (unknown origin) using GSRTPMY-NH2 as substrate in presence of ATP by ADP-glo assay
[27] = target: T1, Cyclin-dependent kinase 12; conditions: dose 2000.0 nM
Description: Inhibition of CDK12 (unknown origin) at 2000 nM relative to control

[28] = target: T1, Cyclin-dependent kinase 12; conditions: dose 200.0 nM
Description: Inhibition of CDK12 (unknown origin) at 200 nM relative to control

[29] = target: T1, Cyclin-dependent kinase 12; conditions: dose 20.0 nM
Description: Inhibition of CDK12 (unknown origin) at 20 nM relative to control

[30] = target: T1, Cyclin-dependent kinase 12; conditions: MDA-MB-231, dose 200.0 nM, time 4.0 hrs

Protein cereblon/Cyclin-K, sequence (O75909 whole entry): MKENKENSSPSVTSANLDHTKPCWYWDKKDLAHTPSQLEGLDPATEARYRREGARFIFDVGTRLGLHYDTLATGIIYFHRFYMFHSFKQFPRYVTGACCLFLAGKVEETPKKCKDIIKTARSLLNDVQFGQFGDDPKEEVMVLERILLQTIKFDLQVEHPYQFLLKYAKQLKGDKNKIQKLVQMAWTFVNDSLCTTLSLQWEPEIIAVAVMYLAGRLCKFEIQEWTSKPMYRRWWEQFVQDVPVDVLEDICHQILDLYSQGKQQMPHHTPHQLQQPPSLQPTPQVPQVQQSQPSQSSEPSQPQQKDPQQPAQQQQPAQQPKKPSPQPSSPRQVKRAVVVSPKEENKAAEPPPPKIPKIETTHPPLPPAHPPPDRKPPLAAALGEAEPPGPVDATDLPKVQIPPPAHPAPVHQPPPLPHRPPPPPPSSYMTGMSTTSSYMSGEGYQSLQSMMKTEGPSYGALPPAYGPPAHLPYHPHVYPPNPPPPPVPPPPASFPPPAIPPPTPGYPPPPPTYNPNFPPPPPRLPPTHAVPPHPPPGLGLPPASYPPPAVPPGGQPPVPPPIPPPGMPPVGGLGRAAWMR
Protein cereblon/Cyclin-K, sequence (Q96SW2 whole entry): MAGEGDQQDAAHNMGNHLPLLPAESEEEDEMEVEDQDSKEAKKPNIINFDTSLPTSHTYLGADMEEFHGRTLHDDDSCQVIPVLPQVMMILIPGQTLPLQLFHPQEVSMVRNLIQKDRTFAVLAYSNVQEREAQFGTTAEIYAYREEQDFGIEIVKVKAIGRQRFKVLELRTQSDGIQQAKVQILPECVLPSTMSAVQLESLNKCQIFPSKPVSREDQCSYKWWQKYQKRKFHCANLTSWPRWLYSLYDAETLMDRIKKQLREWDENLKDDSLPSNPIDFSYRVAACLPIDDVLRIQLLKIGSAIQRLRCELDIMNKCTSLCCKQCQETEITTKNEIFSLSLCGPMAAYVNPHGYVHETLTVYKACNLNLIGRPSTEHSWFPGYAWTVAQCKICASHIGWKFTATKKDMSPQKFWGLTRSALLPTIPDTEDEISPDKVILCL
Cyclin-dependent kinase 13, sequence (Q14004 whole entry): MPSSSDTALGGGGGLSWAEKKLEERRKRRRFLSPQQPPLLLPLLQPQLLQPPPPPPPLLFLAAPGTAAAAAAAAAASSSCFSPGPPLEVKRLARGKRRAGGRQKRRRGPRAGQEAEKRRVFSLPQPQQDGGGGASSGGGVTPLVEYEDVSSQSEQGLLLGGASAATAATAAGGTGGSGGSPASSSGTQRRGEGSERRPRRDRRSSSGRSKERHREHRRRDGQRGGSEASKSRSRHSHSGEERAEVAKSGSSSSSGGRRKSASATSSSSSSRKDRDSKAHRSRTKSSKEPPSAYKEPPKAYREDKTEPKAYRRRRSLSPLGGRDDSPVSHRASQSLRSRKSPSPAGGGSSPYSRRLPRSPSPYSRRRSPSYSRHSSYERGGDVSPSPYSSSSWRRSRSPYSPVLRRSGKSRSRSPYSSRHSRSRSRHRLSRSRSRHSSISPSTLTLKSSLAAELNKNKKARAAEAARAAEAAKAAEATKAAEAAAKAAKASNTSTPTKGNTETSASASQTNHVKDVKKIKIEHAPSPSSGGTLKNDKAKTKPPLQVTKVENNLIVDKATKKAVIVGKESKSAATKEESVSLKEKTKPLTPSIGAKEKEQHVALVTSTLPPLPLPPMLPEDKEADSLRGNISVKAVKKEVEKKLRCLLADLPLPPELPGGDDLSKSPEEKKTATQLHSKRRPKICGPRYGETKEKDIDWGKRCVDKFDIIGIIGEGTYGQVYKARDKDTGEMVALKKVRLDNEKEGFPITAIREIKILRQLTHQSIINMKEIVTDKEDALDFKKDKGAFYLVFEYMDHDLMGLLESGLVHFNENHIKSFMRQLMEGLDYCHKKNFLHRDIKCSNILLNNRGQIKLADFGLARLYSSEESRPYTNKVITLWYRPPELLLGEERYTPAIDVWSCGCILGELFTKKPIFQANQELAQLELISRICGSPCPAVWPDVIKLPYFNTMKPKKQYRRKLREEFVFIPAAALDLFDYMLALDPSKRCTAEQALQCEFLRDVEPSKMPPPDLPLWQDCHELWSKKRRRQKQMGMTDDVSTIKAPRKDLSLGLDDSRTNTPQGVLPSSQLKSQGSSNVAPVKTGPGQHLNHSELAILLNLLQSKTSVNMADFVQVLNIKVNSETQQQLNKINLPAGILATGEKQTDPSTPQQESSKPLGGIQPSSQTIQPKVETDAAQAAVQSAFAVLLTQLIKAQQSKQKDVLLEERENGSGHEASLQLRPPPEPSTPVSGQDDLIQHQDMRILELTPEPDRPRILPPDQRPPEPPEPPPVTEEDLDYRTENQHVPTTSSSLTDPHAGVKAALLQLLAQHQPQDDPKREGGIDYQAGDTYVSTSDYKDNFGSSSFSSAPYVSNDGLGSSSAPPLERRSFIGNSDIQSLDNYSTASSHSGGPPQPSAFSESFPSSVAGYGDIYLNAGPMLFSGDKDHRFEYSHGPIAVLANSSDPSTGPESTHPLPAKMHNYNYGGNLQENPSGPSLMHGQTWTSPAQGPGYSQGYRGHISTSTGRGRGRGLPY

C=CC(=O)Nc1ccc(-c2ccc3nc(CC(=O)Nc4cc(C)ns4)cn3n2)cc1F
EC50 (MDA-MB-468): 4.52 µM

CCC(=O)Nc1ccc(-c2ccc3nc(CC(=O)Nc4cc(C5CCC5)[nH]n4)cn3n2)cc1F
inhibition [1]: Active
inhibition [2]: Active

C=CC(=O)Nc1c(F)cc(-c2ccc3nc(CC(=O)Nc4cc(C5CC5)[nH]n4)cn3n2)cc1F
EC50 (MDA-MB-231 [3]): 0.131 µM
EC50 (MDA-MB-468): 0.197 µM

Cn1cc(-n2cnc3c(NCc4nc5cc(Cl)c(Cl)cc5[nH]4)nc(N4CCOCC4)nc32)cn1
EC50 (MDA-MB-231 [3]): 0.0207 µM
EC50 (MDA-MB-468): 0.0203 µM

C=CC(=O)Nc1ccc(-c2ccc3nc(CC(=O)Nc4cc(C5CC5)[nH]n4)cn3n2)cc1F
Activity (MDA-MB-231 [4]): Active
Activity (MDA-MB-231 [5]): Active
Activity (MDA-MB-231 [6]): Active
Activity (MDA-MB-231 [7]): Active
Activity (MDA-MB-231 [8]): Active
Activity (MDA-MB-231 [9]): Active
Activity (MDA-MB-231 [10]): Active
Activity (MDA-MB-231 [11]): Active
Activity (MDA-MB-231 [12]): Active
Activity (MDA-MB-231 [13]): Active
Activity (MDA-MB-231 [14]): Active
EC50 (MDA-MB-231 [3]): 0.0143 µM
EC50 (MDA-MB-468): 0.0101 µM

C=CC(=O)Nc1ccc(-c2ccc3nc(CC(=O)Nc4nc(C5CC5)cs4)cn3n2)cc1F
EC50 (MDA-MB-468): 7.26 µM

C=CC(=O)Nc1ccc(-c2ccc3nc(CC(=O)Nc4cc(C(C)(C)C)on4)cn3n2)cc1F
EC50 (MDA-MB-231 [3]): 2.86 µM

CCN(CC)CC(=O)N1CCN(c2nc(NCc3nc4cc(Cl)c(Cl)cc4[nH]3)c3ncn(CC)c3n2)CC1
DC50 [15]: 0.00038 µM

C=CC(=O)Nc1ccc(-c2ccc3nc(CC(=O)Nc4cc(C5CC5)[nH]n4)cn3n2)cc1Cl
EC50 (MDA-MB-231 [3]): 0.0849 µM
EC50 (MDA-MB-468): 0.0479 µM

C=CC(=O)Nc1ccc(-c2ccc3nc(CC(=O)Nc4nc(C)c(C)s4)cn3n2)cc1F
EC50 (MDA-MB-231 [3]): 3.15 µM
EC50 (MDA-MB-468): 1.16 µM

C=CC(=O)Nc1ccc(-c2ccc3nc(CC(=O)Nc4ncc(C(C)(C)C)s4)cn3n2)cc1F
EC50 (MDA-MB-231 [3]): 0.219 µM
EC50 (MDA-MB-468): 0.354 µM

C=CC(=O)Nc1ccc(-c2ccc3nc(CC(=O)Nc4ncc(C(C)C)s4)cn3n2)cc1F
EC50 (MDA-MB-231 [3]): 0.424 µM
EC50 (MDA-MB-468): 0.608 µM

C=CC(=O)Nc1ccc(-c2ccc3nc(CC(=O)Nc4cc(C5CCC5)[nH]n4)cn3n2)cc1F
IC50 [16]: 0.0155 µM
inhibition [17]: Active
inhibition [18]: Active
inhibition [19]: Active
Activity [20]: Active
inhibition [21]: Active
inhibition [22]: Active
EC50 [23]: 0.04 µM
EC50 [24]: 0.00538 µM
inhibition [25]: Active
Activity (MDA-MB-231 [4]): Active
Activity (MDA-MB-231 [5]): Active
Activity (MDA-MB-231 [6]): Active
Activity (MDA-MB-231 [7]): Active
Activity (MDA-MB-231 [8]): Active
Activity (MDA-MB-231 [9]): Active
Activity (MDA-MB-231 [10]): Active
Activity (MDA-MB-231 [11]): Active
Activity (MDA-MB-231 [12]): Active
Activity (MDA-MB-231 [13]): Active
Activity (MDA-MB-231 [14]): Active
IC50 [26]: 0.0122 µM
inhibition [27]: 92.5%
inhibition [28]: 93%
inhibition [29]: 73.8%
inhibition [30]: 100%
EC50 (MDA-MB-231 [3]): 0.005 µM
EC50 (MDA-MB-468): 0.006 µM

C=CC(=O)Nc1c(C)cc(-c2ccc3nc(CC(=O)Nc4cc(C5CC5)[nH]n4)cn3n2)cc1C
EC50 (MDA-MB-231 [3]): 0.0759 µM
EC50 (MDA-MB-468): 0.0362 µM

C=CC(=O)Nc1ccccc1-c1ccc2nc(CC(=O)Nc3cc(C4CC4)[nH]n3)cn2n1
EC50 (MDA-MB-231 [3]): 0.352 µM
EC50 (MDA-MB-468): 0.504 µM

C=CC(=O)Nc1ccc(-c2ccc3nc(CC(=O)Nc4cc(C5CC5)[nH]n4)cn3n2)cc1C
EC50 (MDA-MB-231 [3]): 0.0303 µM
EC50 (MDA-MB-468): 0.0135 µM

C=CC(=O)Nc1ccc(-c2ccc3nc(CC(=O)Nc4cc(C5CC5)[nH]n4)cn3n2)cc1OC
EC50 (MDA-MB-231 [3]): 0.0464 µM
EC50 (MDA-MB-468): 0.0409 µM

C=CC(=O)Nc1cccc(-c2ccc3nc(CC(=O)Nc4cc(C5CC5)[nH]n4)cn3n2)c1
EC50 (MDA-MB-231 [3]): 0.126 µM
EC50 (MDA-MB-468): 0.0283 µM

C=CC(=O)Nc1ccc(-c2ccc3nc(CC(=O)Nc4nc(C)cs4)cn3n2)cc1F
EC50 (MDA-MB-231 [3]): 3.04 µM
EC50 (MDA-MB-468): 1.3 µM

C=CC(=O)Nc1ccc(-c2ccc3nc(CC(=O)Nc4ncc(CC)s4)cn3n2)cc1F
IC50 [16]: 0.0342 µM
inhibition [27]: 92.1%
inhibition [28]: 80.7%
inhibition [29]: 29.9%
EC50 (MDA-MB-231 [3]): 0.12 µM
EC50 (MDA-MB-468): 0.108 µM

CN(C)C/C=C/C(=O)Nc1ccc(C(=O)N2CCC[C@@H](Nc3ncc(Cl)c(-c4c[nH]c5ccccc45)n3)C2)cc1
IC50 [16]: 0.0141 µM
inhibition [27]: 93.1%
inhibition [28]: 92.7%
inhibition [29]: 59.7%
EC50 (MDA-MB-231 [3]): 0.0263 µM
EC50 (MDA-MB-468): 0.0069 µM

C=CC(=O)Nc1ccc(-c2ccc3nc(CC(=O)Nc4cc(C)no4)cn3n2)cc1F
EC50 (MDA-MB-231 [3]): 2.93 µM

C=CC(=O)Nc1ccc(-c2ccc3nc(CC(=O)Nc4cc(C5CC5)[nH]n4)cn3n2)cc1
EC50 (MDA-MB-231 [3]): 0.0673 µM
EC50 (MDA-MB-468): 0.0364 µM
